Assay results taken from US20250017914A1, “6-AZA-QUINOLINE DERIVATIVES AND RELATED USES” (Black Diamond Therapeutics, Inc., priority 2021, published 2025).

Biological target: T1, BaF3 BRAF-KIAA1549 fusion cells (Homo sapiens, UniProt P15056)
T1 construct: The BRAF-KIAA1549 fusion mutant was subcloned into pMXs-IRES-Blasticidin (RTV-016, Cell Biolabs, San Diego, CA); No tag given; Q9HCM3 (UPF0606 protein KIAA1549)
Assay: BaF3 BRAF-KIAA1549 fusion cell proliferation assay (CellTiterGlo, 96 hours)
Format: cell-based
Experimental: Retroviral Production: The BRAF-KIAA1549 fusion mutant was subcloned into pMXs-IRES-Blasticidin (RTV-016, Cell Biolabs, San Diego, CA). Retrovirus was produced by transfection of HEK 293T cells with the retroviral BRAF mutant expression vector pMXs-IRES-Blasticidin (RTV-016, Cell Biolabs), pCMV-Gag-Pol vector and pCMV-VSV-G-Envelope vector. Briefly, HEK 293T cells were plated in Poly-D-lysine coated 6-well plate (2.5×10^5 cells per well) and incubated overnight. The next day, retroviral plasmids (1 μg of BRAF-KIAA fusion mutant, 0.32 μg of pCMV-Gag-Pol and 0.165 μg pCMV-VSV-G) were mixed in 300 μL of Optimem (31985, Life Technologies). The mixture was incubated at room temperature for 5 minutes and then added to Optimem containing transfection reagent Lipofectamine (11668, Invitrogen) and incubated for 20 minutes. The mixture was then added dropwise to HEK 293T cells. The next day the medium was replaced with fresh culture medium and retrovirus was harvested at 24 hours.
Generation of BRAF-KIAA1549 fusion stable cell line: BaF3 cells were plated in V-bottom 96 well plate (COSTAR #3894) in 80 μL of RPMI/10% FBS and 0.01 ng/mL mouse IL-3, supplemented with 8 μg/mL polybrene (4×10^4 cells/well). Cells were transduced with 20 μL of BRAF-KIAA1549 fusion viral supernatant by centrifuging for 30 minutes at 1000 rpm. Cells were placed in a 37° C. incubator overnight. Next day 100 μL of RPMI/10% FBS and 0.01 ng/mL mouse IL-3 was added. After 24 hours, 100 μL of cells were transferred to a 24 well plate containing 900 μL of RPM/10% FBS and 15 μg/mL Blasticidin. Contents of the 24 well plate were sampled for cell viability via CellTiterGlo (Promega) over a 2-week period.
Assay for cell proliferation: BaF3 BRAF-KIAA1549 fusion cells were resuspended at 1.5×10^5 c/mL in RPMI containing 10% Heat Inactivated FBS, 1% L-glutamine and dispensed in duplicate (7×10^4 c/well) into 384 well plates. To determine the effect of compound on cell proliferation, BaF3 BRAF-KIAA1549 fusion cells were incubated for 96 hours in the presence of vehicle control (DMSO) or compound at varying concentrations. Inhibition of cell growth was determined by luminescent quantification (Envision by Perkin Elmer) of intracellular ATP content using CellTiterGlo (Promega), according to the protocol provided by the manufacturer. To determine the IC50 values, the vehicle-treated cells were normalized as viable cells and analyzed using the CDD Vault, Collaborative Drug Discovery, Burlingame, CA (the Levenberg-Marquardt algorithm; Levenberg, K., […]; Marquardt, D., 1963).
Tables A1 and A2 assign each compound a code for potency in the BaF3 BRAF-KIAA1549 fusion cell proliferation assay: A, B, C, or D. According to the code, A represents an IC50 value <20 nM; B represents an IC50 value ≥20 nM and <100 nM; C represents an IC50 value ≥100 nM and <500 nM; and D represents an IC50 value ≥500 nM.

T1 sequence (P15056 whole entry, change not shown, the tested form may be a part): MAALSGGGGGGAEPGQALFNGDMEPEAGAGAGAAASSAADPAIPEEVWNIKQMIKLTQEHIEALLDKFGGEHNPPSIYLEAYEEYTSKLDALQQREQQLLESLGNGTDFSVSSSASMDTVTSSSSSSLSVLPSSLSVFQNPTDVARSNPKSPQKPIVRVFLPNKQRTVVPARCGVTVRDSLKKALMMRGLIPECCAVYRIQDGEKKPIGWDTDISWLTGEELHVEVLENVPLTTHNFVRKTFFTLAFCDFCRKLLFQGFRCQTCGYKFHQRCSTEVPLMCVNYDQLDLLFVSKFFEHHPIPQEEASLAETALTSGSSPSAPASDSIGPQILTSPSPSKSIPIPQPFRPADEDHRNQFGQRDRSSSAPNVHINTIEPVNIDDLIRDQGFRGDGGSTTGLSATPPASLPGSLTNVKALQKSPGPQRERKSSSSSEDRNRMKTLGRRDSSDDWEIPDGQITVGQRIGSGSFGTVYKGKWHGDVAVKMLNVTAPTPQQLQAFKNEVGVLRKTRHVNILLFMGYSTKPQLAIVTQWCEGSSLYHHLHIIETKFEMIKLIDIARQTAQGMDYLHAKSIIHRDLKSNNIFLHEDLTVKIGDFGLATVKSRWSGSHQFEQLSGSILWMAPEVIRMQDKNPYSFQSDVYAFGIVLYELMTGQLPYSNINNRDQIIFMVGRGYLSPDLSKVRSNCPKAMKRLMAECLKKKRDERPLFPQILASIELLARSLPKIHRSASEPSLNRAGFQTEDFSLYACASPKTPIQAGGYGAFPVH

## CNc1cc2ncc(-c3cc(NC(=O)c4ccnc(C(C)(C)C#N)c4)c(F)cc3C)cc2cn1 [Compound 217, 2-(2-cyanopropan-2-yl)-N-(2-fluoro-4-methyl-5-(7-(methylamino)-1,6-naphthyridin-3-yl)phenyl)isonicotinamide]
Table A2
  GI50: 20 to 100 nM

## CNc1cc2ncc(-c3cc(NC(=O)c4ccnc(C(F)F)c4)ccc3C)cc2cn1 [Compound 8, 2-(Difluoromethyl)-N-(4-methyl-3-(7-(methylamino)-1,6-naphthyridin-3-yl)phenyl)isonicotinamide]
Table A1
  GI50: 20 to 100 nM

## CNc1cc2ncc(-c3cc(NC(=O)c4cnc5n4CCCC5)cnc3C)cc2cn1 [Compound 209, N-(6-methyl-5-(7-(methylamino)-1,6-naphthyridin-3-yl)pyridin-3-yl)-5,6,7,8-tetrahydroimidazo[1,2-a]pyridine-3-carboxamide]
Table A2
  GI50: ≥ 500 nM

## CNc1cc2ncc(-c3cc(NC(=O)c4cccc5c4OC(C)C5)cnc3C)cc2cn1 (stereo not drawn) [Compound 239, 2-methyl-N-(6-methyl-5-(7-(methylamino)-1,6-naphthyridin-3-yl)pyridin-3-yl)-2,3-dihydrobenzofuran-7-carboxamide]
Table A2
  GI50: ≥ 500 nM

## CNc1cc2ncc(-c3cc(NC(=O)c4cc(C(C)(C)C#N)ccn4)cc(F)c3F)cc2cn1 [Compound 39, 4-(2-Cyanopropan-2-yl)-N-(3,4-difluoro-5-(7-(methylamino)-1,6-naphthyridin-3-yl)phenyl)picolinamide]
Table A1
  GI50: 20 to 100 nM

## CNc1cc2c(C#N)cc(-c3cc(NC(=O)c4ccnc(C5(F)CC5)c4)ccc3C)cc2cn1 [Compound 272, N-(3-(5-cyano-3-(methylamino)isoquinolin-7-yl)-4-methylphenyl)-2-(1-fluorocyclopropyl)isonicotinamide]
Table A2
  GI50: 20 to 100 nM

## CNc1cc2ncc(-c3cc(NC(=O)c4cncc(C(F)(F)F)c4)ccc3C)cc2cn1 [Compound 3, N-(4-methyl-3-(7-(methylamino)-1,6-naphthyridin-3-yl)phenyl)-5-(trifluoromethyl)nicotinamide]
Table A1
  GI50: < 20 nM

## CNc1cc2ncc(-c3cc(NC(=O)CN4CCC[C@H](C(F)(F)F)C4)ccc3C)cc2cn1 [Compound 63, (S)—N-(4-Methyl-3-(7-(methylamino)-1,6-naphthyridin-3-yl)phenyl)-2-(3-(trifluoromethyl)piperidin-1-yl)acetamide]
Table A1
  GI50: 20 to 100 nM

## CNc1cc2ncc(-c3cc(NC(=O)c4cccc(C(C)(C)C#N)c4)ccc3C)cc2cn1 [Compound 193, 3-(2-cyanopropan-2-yl)-N-(4-methyl-3-(7-(methylamino)-1,6-naphthyridin-3-yl)phenyl)benzamide]
Table A2
  GI50: < 20 nM

## CNc1cc2ncc(-c3cc(NC(=O)c4cccc5c4CCC5O)cnc3C)cc2cn1 (stereo not drawn) [Compound 219, 1-hydroxy-N-(6-methyl-5-(7-(methylamino)-1,6-naphthyridin-3-yl)pyridin-3-yl)-2,3-dihydro-1H-indene-4-carboxamide]
Table A2
  GI50: ≥ 500 nM

## CNc1cc2ncc(-c3cc(NC(=O)c4cc(C(F)(F)F)ccn4)ccc3C)cc2cn1 [Compound 1, N-(4-methyl-3-(7-(methylamino)-1,6-naphthyridin-3-yl)phenyl)-4-(trifluoromethyl)picolinamide]
Table A1
  GI50: < 20 nM

## CNc1cc2ncc(-c3cc(NC(=O)c4cc(C5(C#N)CCC5)ccn4)cnc3C)cc2cn1 [Compound 31, 4-(1-Cyanocyclobutyl)-N-(6-methyl-5-(7-(methylamino)-1,6-naphthyridin-3-yl)pyridin-3-yl)picolinamide]
Table A1
  GI50: 20 to 100 nM

## CNc1cc2ncc(-c3cc(NC(=O)c4ccnc(C(F)(F)F)c4)cnc3C)cc2cn1 [Compound 27, N-(6-Methyl-5-(7-(methylamino)-1,6-naphthyridin-3-yl)pyridin-3-yl)-2-(trifluoromethyl)isonicotinamide]
Table A1
  GI50: < 20 nM

## CNc1cc2ncc(-c3cc(NC(=O)c4ccnc(C5CC(F)(F)C5)c4)ccc3C)cc2cn1 [Compound 17, 2-(3,3-Difluorocyclobutyl)-N-(4-methyl-3-(7-(methylamino)-1,6-naphthyridin-3-yl)phenyl)isonicotinamide]
Table A1
  GI50: < 20 nM

## CNc1cc2ncc(-c3cc(NC(=O)C[C@@H]4C[C@H](C(F)(F)F)CCO4)ccc3C)cc2cn1 (single isomer, unassigned) [Compound 7, N-(4-Methyl-3-(7-(methylamino)-1,6-naphthyridin-3-yl)phenyl)-2-(4-(trifluoromethyl)tetrahydro-2H-pyran-2-yl)acetamide]
Table A1
  GI50: < 20 nM

## CNc1cc2ncc(-c3cc(NC(=O)c4cc(C(F)(F)F)c(C)cn4)cnc3C)cc2cn1 [Compound 25, 5-Methyl-N-(6-methyl-5-(7-(methylamino)-1,6-naphthyridin-3-yl)pyridin-3-yl)-4-(trifluoromethyl)picolinamide]
Table A1
  GI50: 20 to 100 nM

## CNc1cc2ncc(-c3cc(NC(=O)c4c[nH]c5c4CC(C)CC5)ccc3C)cc2cn1 (stereo not drawn) [Compound 266, 5-methyl-N-(4-methyl-3-(7-(methylamino)-1,6-naphthyridin-3-yl)phenyl)-4,5,6,7-tetrahydro-1H-indole-3-carboxamide]
Table A2
  GI50: 20 to 100 nM

## CNc1cc2ncc(-c3cc(F)c(F)c(NC(=O)c4cc(C(C)(C)C#N)ccn4)c3)cc2cn1 [Compound 46, 4-(2-Cyanopropan-2-yl)-N-(2,3-difluoro-5-(7-(methylamino)-1,6-naphthyridin-3-yl)phenyl)picolinamide]
Table A1
  GI50: 100 to 500 nM

## CNc1cc2ncc(-c3cc(NC(=O)c4noc5c4COCC5)cnc3C)cc2cn1 [Compound 246, N-(6-methyl-5-(7-(methylamino)-1,6-naphthyridin-3-yl)pyridin-3-yl)-6,7-dihydro-4H-pyrano[3,4-d]isoxazole-3-carboxamide]
Table A2
  GI50: ≥ 500 nM

## CNc1cc2ncc(-c3cc(NC(=O)c4ccnc(C(C)(F)F)c4)cnc3C)cc2cn1 [Compound 29, 2-(1,1-Difluoroethyl)-N-(6-methyl-5-(7-(methylamino)-1,6-naphthyridin-3-yl)pyridin-3-yl)isonicotinamide]
Table A1
  GI50: < 20 nM

## CNc1cc2ncc(-c3cc(NC(=O)c4ccnc(C5CC(F)(F)C5)c4)cnc3C)cc2cn1 [Compound 34, 2-(3,3-Difluorocyclobutyl)-N-(6-methyl-5-(7-(methylamino)-1,6-naphthyridin-3-yl)pyridin-3-yl)isonicotinamide]
Table A1
  GI50: 20 to 100 nM

## CNc1cc2ncc(-c3cc(NC(=O)c4csc5c4CCCC5)cnc3C)cc2cn1 [Compound 234, N-(6-methyl-5-(7-(methylamino)-1,6-naphthyridin-3-yl)pyridin-3-yl)-4,5,6,7-tetrahydrobenzo[b]thiophene-3-carboxamide]
Table A2
  GI50: 20 to 100 nM

## CNc1cc2ncc(-c3cc(NC(=O)c4cccc5c4CCCC5=O)cnc3C)cc2cn1 [Compound 198, N-(6-methyl-5-(7-(methylamino)-1,6-naphthyridin-3-yl)pyridin-3-yl)-5-oxo-5,6,7,8-tetrahydronaphthalene-1-carboxamide]
Table A2
  GI50: ≥ 500 nM

## CNc1cc2ncc(-c3cc(NC(=O)c4cc(C(C)(C)C#N)ccn4)c(F)cc3Cl)cc2cn1 [Compound 37, N-(4-Chloro-2-fluoro-5-(7-(methylamino)-1,6-naphthyridin-3-yl)phenyl)-4-(2-cyanopropan-2-yl)picolinamide]
Table A1
  GI50: 20 to 100 nM

## CNc1cc2ncc(-c3cc(NC(=O)c4cc(C(F)(F)F)ccn4)c(F)cc3C)cc2cn1 [Compound 224, N-(2-fluoro-4-methyl-5-(7-(methylamino)-1,6-naphthyridin-3-yl)phenyl)-4-(trifluoromethyl)picolinamide]
Table A2
  GI50: 100 to 500 nM

## CNc1cc2ncc(-c3cc(NC(=O)c4cc(C(C)(C)C#N)ccn4)cc(Cl)c3C)cc2cn1 [Compound 48, N-(3-Chloro-4-methyl-5-(7-(methylamino)-1,6-naphthyridin-3-yl)phenyl)-4-(2-cyanopropan-2-yl)picolinamide]
Table A1
  GI50: ≥ 500 nM

## CCNc1cc2ncc(-c3cc(NC(=O)c4ccnc(C5(F)CC5)c4)ccc3C)cc2cn1 [Compound 153, N-(3-(7-(ethylamino)-1,6-naphthyridin-3-yl)-4-methylphenyl)-2-(1-fluorocyclopropyl)isonicotinamide]
Table A1
  GI50: 20 to 100 nM
